The test system of this experiment is NCI-H1876 complex spheroid viability. As to the kind of experiment: Anticancer human tumor NCI-H1876 cell line growth inhibition [LSD1].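 As to all read-outs here: spheroids exposed to compounds for one week before readout.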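 As to viability, T/C: 100% = DMSO vehicle-treated spheroids so lower means fewer viable cells.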 The following applies: for viability, T/C: stronger effect = lower value. The text has this:
Multicellular complex tumor spheroid response to LSD1 Inhibitor Iadademstat in combination with a variety of drugs and investigational agents in selected tumor cell lines
The current study was undertaken to assess response to LSD1 inhibitors in combination with standard-of-care drugs and investigational agents in solid tumor complex spheroid models as well as in the K-562 leukemia. Complex spheroids include a stromal component modeled by human endothelial cells (HUVEC) and fibroblasts modeled by human mesenchymal stem cells (MSCs). The concentration ranges selected for each drug and investigational agent were based upon clinically achievable concentrations if the clinical Cmax of the agent was known.
Compounds. The drugs and investigational agents used in this study are listed on Table 1. All of the agents used, including staurosporine (NSC755774) and gemcitabine (NSC613327), were obtained from the Developmental Therapeutics Program, NCI. FDA-approved anticancer drugs are available from the NCI at http://dtp.nci.nih.gov/branches/dscb/oncology_drugset_explanation.html. Drugs and investigational agents were >95% pure by proton nuclear magnetic resonance (NMR) and liquid chromatography/mass spectrometry (LC/MS). Stock solutions were prepared at 400x in DMSO, stored at -70 degrees C, and diluted in fresh medium prior to their use. The final concentration of DMSO in cell culture wells never exceeded 0.25% (v/v). The FDA-approved anticancer drug set is available from the Developmental Therapeutics Program at https://dtp.cancer.gov/organization/dscb/obtaining/available_plates.htm. All drugs and investigational agents were tested over a range starting from a high concentration at or near the clinical Cmax and decreasing in half-log increments. If the clinical Cmax for an agent had not been determined, the highest concentration tested was 10 microM.
Cell Lines. The patient-derived cancer cell (PDC) lines: 292921-168-R-J2-PDC, K24384-001-R-PDC, and 521955-158-R2-J5-PDC pancreatic carcinomas, 556581-035-R-J1 ovarian carcinoma, 324938-238-R-J1-PDC, 855422-203-R-J1-PDC and 883617-216-R-J1-PDC urothelial bladder carcinomas, 743489-274-T-PDC renal cell carcinoma, 138582-R-J1 Merkel cell tumor, K60290-347-R-J1 and K57222-313-R-J1-PDC glioblastomas, 653999-131-R-J2-PDC, LG0703-F948-PDC, and 349418-098-R-PDC non-small cell lung carcinomas, 885512-296-R-J2-PDC, 171881-019-R-J1-PDC breast carcinomas and 186277-243-T-J2-PDC and 233499-124-R-J2-PDC colon carcinomas were obtained from the NCI Patient-Derived Models Repository (PDMR, https://pdmr.cancer.gov). The established cell lines NCI/ADR-RES (RRID:CVCL_14520 and OVCAR-5 (RRID:CVCL_1628) ovarian carcinomas, 786-O (RRID:CVCL_1051) and A498 (RRID:CVCL_A498) renal cell carcinoma, NCI-H211 (ATCC, cat. CRL-5824; RRID:CVCL_1529), NCI-H196 (ATCC, cat. CRL-5823, RRID:CVCL_1509), SW 1271 (ATCC, cat. CRL-2177, RRID:CVCL_1716) and NCI-H1876 (ATCC, cat. CRL-5902, RRID:CVCL_1503) small cell lung carcinomas, MDA-MB-231 (RRID:CVCL_0062) and MDA-MB-468 (RRID:CVCL_0419)breast carcinomas (10-12). Pooled donor human umbilical vein endothelial cells (HUVEC, Lonza, cat. CC-2519) and human mesenchymal stem cells (hMSC, Lonza, cat. PT-2501) were purchased from Lonza (Walkersville, MD).
Cell Culture. All cells were maintained in an incubator at 37 degrees C and 5% CO2 with 95% humidity. The PDC lines were cultured according to standard operating procedures established by the NCI PDMR (https://pdmr.cancer.gov). Briefly all PDCs were thawed and cultured in Matrigel-coated flasks prepared with a working solution of 1X Ham's F-12 nutrient mix, without supplementation (Invitrogen, Waltham, MA, cat. 11765054), 100 U/mL penicillin-streptomycin (Invitrogen, cat. 15140122), and 2.5% Matrigel (Corning Inc., Corning, NY, cat. 354248) for the first three passages. […]

The structures appear in SMILES notation. Where “and” joins values, the source holds several entries; their conditions need not be identical. Equal entries are not always repeated.

These results are taken from PubChem BioAssay AID1918957 (Molecular Pharmacology Branch, DTP, NCI, 2023).

Regarding `CC(C)c1c(-c2ccccc2)nc2c(C#N)c[nH]n2c1=O`, the viability, T/C runs as follows: (compound 0.0316 µM) 93.8% and 104%; (compound 0.1 µM) 94.6% and 101%; (compound 0.316 µM) 92.2% and 103%; (compound 1 µM) 92% and 102%; (compound 3.16 µM) 89.2% and 94.4%; (compound 10 µM) 27.8% and 33.1%. Further, the IC50 (curve of compound) is 6.59 µM and 7.28 µM.

Consider `CC1COCCN1c1cc(C2(S(C)(=N)=O)CC2)nc(-c2ccnc3[nH]ccc23)n1` (stereo not drawn), for which the viability, T/C by setting is: (compound 0.0316 µM) 103% and 104%; (compound 0.1 µM) 109% and 102%; (compound 0.316 µM) 102% and 103%; (compound 1 µM) 102% and 105%; (compound 3.16 µM) 80.3% and 74.2%; (compound 10 µM) 28.5% and 23.1%. Moreover, the IC50 (curve of compound) is 6.2 µM and 5.45 µM.

For the compound `COc1ccc([C@@H](O)c2cc(-c3ncnc4cc(N5CCOCC5)ccc34)c(F)cc2Cl)nn1`, the viability, T/C runs as follows: (compound 0.0316 µM) 93.6% and 98%; (compound 0.1 µM) 101% and 97.7%; (compound 0.316 µM) 91.2% and 85.7%; (compound 1 µM) 84.5% and 68.1%; (compound 3.16 µM) 59.4% and 41.1%; (compound 10 µM) 25.1% and 10.8%. In addition, the IC50 (curve of compound) is 4.34 µM and 2.15 µM.

As for `NC1CC1c1ccc(-c2cccc(O)c2)cc1` (stereo not drawn), under “compound 0.1 µM”, the viability, T/C is 94%. For the same compound, the IC50 (compound alone, run of 02/21/2022) was more than 10 µM.

On to `NC1CCC(NC2CC2c2ccccc2)CC1` (stereo not drawn), for which the viability, T/C reads like this: (compound 0.316 µM) 98.5% and 109%; (compound 1 µM) 102% [middle of 25 runs]; (compound 3.16 µM) 102% [middle of 25 runs]; (compound 10 µM) 103% [middle of 23 runs]. Also, the half-maximal inhibitory concentration (IC50) (compound alone, run of 02/15/2022) is more than 10 µM.

On to `Nc1ncn(C2CC(O)C(CO)O2)c(=O)n1` (stereo not drawn) + NC1CC1c1ccc(-c2cccc(O)c2)cc1, for which the IC50 runs as follows: (curve of first compound, second compound 0.1 µM) more than 1 µM; (curve of first compound, second compound 0.316 µM) more than 1 µM; (curve of first compound, second compound 1 µM) more than 1 µM; (curve of first compound, second compound 3.16 µM) more than 1 µM; (curve of first compound, second compound 10 µM) more than 1 µM. In addition, the viability, T/C is 109% (second compound 0.1 µM, first compound 0.00316 µM); 103% (second compound 0.1 µM, first compound 0.01 µM); 105% (second compound 0.1 µM, first compound 0.0316 µM); 98.6% (second compound 0.1 µM, first compound 0.1 µM); 91% (second compound 0.1 µM, first compound 0.316 µM); 101% (second compound 0.1 µM, first compound 1 µM). The viability, T/C was 113% (second compound 0.316 µM, first compound 0.00316 µM); 110% (second compound 0.316 µM, first compound 0.01 µM); 105% (second compound 0.316 µM, first compound 0.0316 µM); 99% (second compound 0.316 µM, first compound 0.1 µM); 96% (second compound 0.316 µM, first compound 0.316 µM); 94.3% (second compound 0.316 µM, first compound 1 µM). The viability, T/C is, setting by setting: (second compound 1 µM, first compound 0.00316 µM) 106%; (second compound 1 µM, first compound 0.01 µM) 114%; (second compound 1 µM, first compound 0.0316 µM) 106%; (second compound 1 µM, first compound 0.1 µM) 102%; (second compound 1 µM, first compound 0.316 µM) 104%; (second compound 1 µM, first compound 1 µM) 101%. The viability, T/C (second compound 3.16 µM, first compound 0.00316 µM) was 106%; the viability, T/C (second compound 3.16 µM, first compound 0.01 µM) is 113%; the viability, T/C (second compound 3.16 µM, first compound 0.0316 µM) was 107%; the viability, T/C (second compound 3.16 µM, first compound 0.1 µM) was 99.1%; the viability, T/C (second compound 3.16 µM, first compound 0.316 µM) was 94.3%; the viability, T/C (second compound 3.16 µM, first compound 1 µM) was 89.8%. Besides, the viability, T/C reads like this: (second compound 10 µM, first compound 0.00316 µM) 109%; (second compound 10 µM, first compound 0.01 µM) 107%; (second compound 10 µM, first compound 0.0316 µM) 103%; (second compound 10 µM, first compound 0.1 µM) 108%; (second compound 10 µM, first compound 0.316 µM) 93.4%; (second compound 10 µM, first compound 1 µM) 92.1%.

As usually defined, the viability, T/C is the result in the treated group divided by that in the control group, in per cent. One may read the IC50 as the concentration that gives 50% inhibition.
